According to patent US20240245696A1, “INHIBITORS OF DNA PK AND USES THEREOF” (BioVentures, LLC, priority 2017, published 2024):
“Also recorded” adds a separate entry of the source.

Columns and labels:
NFAT = assay: Western blot of phosphorylated NFAT (s237) in activated Jurkat cells; type: cell-based, human; settings: Jurkat activated with PMA+PHA
Experimental: (§1) Cell Culture: Human peripheral blood mononuclear cells (PBMC,) and Jurkat cells were purchased from ATCC (PCS-800-011, Manassas, VA). Cells were maintained at 37° C. in a humidified atmosphere composed of 5% CO2. Jurkat cells were cultured in RPMI 1640 medium which was supplemented with 10% FCS and human PBMC was cultured in RPMI 1640 medium which was supplemented with 10% FCS and pen/strep. Both Jurkat cells and PBMC were stimulated with PHA (50 ng/mL) and PMA (1 μg/mL) for 24 hours prior to harvesting for IL-2 detection or 6 hours prior for western blot analysis. The NU7441 DNA-PKcs inhibitor was added at varying concentrations at the time of stimulation.
Cell lysis and nuclear extract: Cells were washed with cold PBS twice and centrifuged at 5000 rpm for 5 minutes. For the nuclear extract, pellets were suspended with 800 μL of 10 mN HEPES lysis buffer (10 mM HEPES at pH 7.9, 10 mM KCl, 1 mM DTT, and 1× protease and phosphatase inhibitor) and incubated on ice for 15 minutes. 50 μL of NP-40 (10% in water) was added and the pellets were mixed for 10 seconds. Lysates were centrifuged for 5 minutes at 4° C. at 13,000 rpm. […]

PD-1 = assay: qPCR of PD-1 expression in stimulated Jurkat cells; type: cell-based, human; settings: PHA+PMA stimulation
Experimental: Evaluation of PD-1 and IL-2 expression: The effect of NU7441 on the expression of PD-1, a protein with immunosuppressant function, and IL-2 was examined in Jurkat cells following stimulation with PHA+PMA and treatment with the inhibitor NU7441. qPCR analysis was performed using primers specific for PD1 and IL-2 sequences.

DNA-PKcs = DNA-PKcs (Homo sapiens, UniProt P78527); assay: Western blot of phosphorylated DNA-PKcs (s2056) in activated Jurkat cells; type: cell-based; parameters: host or cells: Jurkat cells; settings: Jurkat activated with PMA+PHA
Experimental: Cell Culture: Human peripheral blood mononuclear cells (PBMC,) and Jurkat cells were purchased from ATCC (PCS-800-011, Manassas, VA). Cells were maintained at 37° C. in a humidified atmosphere composed of 5% CO2. […] Both Jurkat cells and PBMC were stimulated with PHA (50 ng/mL) and PMA (1 μg/mL) for 24 hours prior to harvesting for IL-2 detection or 6 hours prior for western blot analysis. The NU7441 DNA-PKcs inhibitor was added at varying concentrations at the time of stimulation.
Cell lysis and nuclear extract: Cells were washed with cold PBS twice and centrifuged at 5000 rpm for 5 minutes. For the nuclear extract, pellets were suspended with 800 μL of 10 mN HEPES lysis buffer (10 mM HEPES at pH 7.9, 10 mM KCl, 1 mM DTT, and 1× protease and phosphatase inhibitor) and incubated on ice for 15 minutes. 50 μL of NP-40 (10% in water) was added and the pellets were mixed for 10 seconds. Lysates were centrifuged for 5 minutes at 4° C. at 13,000 rpm. The supernatant solution which is containing the cytosolic fraction was discarded and the pellets were resuspended in 20 mM HEPES lysis buffer (20 mM HEPES at pH 7.9, 0.4 M NaCl, 1 mM DTT, and 1× protease, and phosphatase inhibitor) and incubated on ice for 15 minutes with intermittent mixing. Lysates were centrifuged for 10 minutes at 4° C. at 13,000 rpm. […]

Jurkat cells = assay: Cell viability assay (CELLTITER 96 AQUEOUS One) in Jurkat cells; type: cell-based, human; settings: NU7441 at varying concentrations, 48 hours
Experimental: as §1, with “stimulation. Cell viability assay: Cell viability assay was performed using Promega CELLTITER 96 AQUEOUS One Solution Cell Proliferation Assay (Madison, WI) and following the manufacturer's protocol. Briefly, 100 μL of PBMC or Jurkat cells were plated in a 96-well plate and treated with various concentration of NU7441 for 48 hours. CELLTITER solution (20 μL/100 μL of cell suspension) was added to the cells and the plate was incubated for 3 hours at 37° C. and the absorbance at 490 nm was recorded using SynergyHTX (BioTek, Winooski, VT) plate reader.” for “stimulation.”

IL-2 = assay: Secreted IL-2 ELISA, Jurkat cells stimulated with anti-CD28/CD3 dynabeads; type: cell-based, human; settings: anti-CD28/CD3 dynabeads 1:1 ratio, 24 hours
Experimental: Detection of secreted IL-2: Secreted IL-2 was detected by Human IL-2 ELISA Kit from Thermo Scientific (Waltham, MA). The manufacturer's protocol was followed. Prior to harvesting, cells were treated with PHA (50 ng/ml) and PMA (1 μg/mL) for 24 hours with or without the NU7441 inhibitor. Jurkat cells stimulated with the anti-CD28/CD3 dynabeads were done so according to the manufacturer's protocol at a 1:1 ratio for 24 hours prior to harvesting. After stimulation, supernatant samples of Jurkat cells or PBMCs (2 million cells/mL) were collected and diluted 10 times before the assay. IL-2 standards and samples (50 μL) and Biotinylated antibody reagents (50 μL) were added to each well and the plate was incubated for 3 hours at room temperature. The plate was washed 3 times and 100 μL of Streptavidin-HRP solution was added. After 30 minutes of incubation at room temperature, the plate was washed 3 times. TMB substrate (100 μL) was added and incubated for 30 minutes in the dark at room temperature. Stop solution was added and the absorbance of each well was read at 450 nm using the plate reader.

PBMC = assay: Cell viability assay (CELLTITER 96 AQUEOUS One) in PBMC; type: cell-based, human; settings: various concentrations, 48 hours
Experimental: as §1, with “stimulation. Cell viability assay: Cell viability assay was performed using Promega CELLTITER 96 AQUEOUS One Solution Cell Proliferation Assay (Madison, WI) and following the manufacturer's protocol. Briefly, 100 μL of PBMC or Jurkat cells were plated in a 96-well plate and treated with various concentration of NU7441 for 48 hours. CELLTITER solution (20 μL/100 μL of cell suspension) was added to the cells and the plate was incubated for 3 hours at 37° C. and the absorbance at 490 nm was recorded using SynergyHTX (BioTek, Winooski, VT) plate reader.” for “stimulation.”

## O=c1cc(N2CCOCC2)oc2c(-c3cccc4c3sc3ccccc34)cccc12 [NU7441]
NFAT
  NFAT phosphorylation at s237: remained phosphorylated; also recorded: inhibited the dephosphorylation of NFAT
PD-1
  expression level of PD-1: did not alter
DNA-PKcs
  DNA-PKcs phosphorylation (s2056): effectively inhibited DNA-PKcs phosphorylation
DNA-PKcs; listed as NU744
  DNA-PKcs phosphorylation (s2056): reduced
Jurkat cells
  viability of Jurkat cells: did not alter the viability; also recorded: no significant reduction in viability
IL-2
  IL-2 production: significantly blocked IL-2 production; also recorded: inhibited
PBMC
  cellular viability of PBMC: did not affect cellular viability; also recorded: does not reduce cell viability
